Results on 6 molecules are retold here after US6686444B2, “Osteopontin derived chemotactic peptides and methods of use” (Children's Medical Center Corporation, priority 1996, dated 2004).

Test [1] concerns osteosarcoma cells. In words: Modified Boyden chamber chemotaxis of osteosarcoma cells. The settings on record: for Chemotactic activity (in words): osteosarcoma cells. It counts as cell-based. On the procedure: Purified OPN (˜0.5 mg) was digested with trypsin (2% w/w) in 0.2 ml of 50 mM NH4HCO3, pH 8.0, for 20 hours at 37° C. before treatment of the reaction products with 50 μl of 100% H2O+0.1% trifluoroacidic acid (TFA) and resolution of the peptides by HPLC chromatography on C-18 column (25×0.46 cm). After injection the column was washed for 10 min, followed by linear gradient elution from 100% H2O+0.1% TFA to 60% CH3CN+0.55% TFA over 120 min, with a second gradient from 60% CH3CN to 80% CN3CN over 30 min at a flow rate of 0.5 ml/min. The absorbance at 219 nm was recorded continuously by an on-line chart recorder/integrator using Gilson HM Holochrome detector, and fractions of 0.5 ml were collected. Each peak was then tested for mediation of chemotaxis or for its ability to inhibit OPN mediated chemotaxis using the chemotactic assay described in Example 4 below. Furthermore, each peak was also tested for its ability to promote attachment of CD44^+ or αvβx cells.
Positive peaks from tryptic digest were sequenced by gas-phase automated sequenator. Chemotactic peptides corresponding to the positive sequences were synthesized and the resulting synthetic peptides were then tested for their ability to promote either chemotaxis or to inhibit the chemotaxis to OPN as described in Example 4. Chemical synthesis of peptides provides a convenient method to test the sequence specificity and minimal length of the chemotactic peptides.
In a modified Boyden chamber, both surfaces of polycarbonate filters (pore size, 8 μm) were coated with gelatin (100 μg/ml, overnight) before 1×10^3 osteosarcoma cells were added in 500 μl to the upper chamber and incubated at 37° C. in the presence or absence of chemotactic agents in the lower chamber. After two hours, the membranes were fixed in methanol and stained with hematoxilin/toluidine blue. Responding cells on the lower surface of the filter were counted microscopically and evaluated in triplicates. Random migration was assessed by counting the number of cells that migrated to the lower surface of the filter when excess chemotactic molecule was added to the upper chamber.

For test [2], the system named is peritoneal exudate cells. Description: In vivo cellular migration into the peritoneum after intraperitoneal injection (peritoneal exudate, flow cytometry). Details: species or system Mice. On the procedure: Mice were injected intraperitoneally with varying dosages of K7 osteosarcoma-derived osteopontin. All injection volumes were 200 μl. Injections of vehicle alone (PBS) served as negative controls and vehicle plus 20 μg lipopolysaccharide (LPS) injections served as positive controls for elicitation of peritoneal exudates.
Mice were sacrificed by CO2-asphyxiation at varying times following injection. Immediately after sacrifice, peritoneal exudate was recovered by intraperitoneal injection and recovery of 10 mL PBS. The lavage procedure was performed twice on each mouse. Following this, red blood cells were lysed by hypotonic lysis with ACK lysis buffer (0.15 M NH4Cl, 1.0 mM KHCO3, 0.1 mM Na2EDTA, pH 7.4) for 5 minutes at room temperature, and the preparation was washed in DMEM, 5% FBS. Cells were resuspended in DMEM, 5% FBS for fluorescent antibody staining.
Each sample of cells to be analyzed for specific surface markers was suspended in DMEM, 5% FBS at a concentration of 0.2 to 1 million cells in 50 μl. Fluorescence-labeled antibodies were added at 1 μg/1×10^6 cells, and incubated with the cells for 30 minutes at 4° C. Samples were washed twice with 200 μl of PBS following antibody staining and fixed with 500 μl of 2% paraformaldehyde in PBS. Peritoneal exudate cells were analyzed by dual-color flow cytometry for expression of CD44 (PE), CD11b (Mac-1, FITC, macrophage marker), B220 (FITC, B-cell marker), and CD3 (FITC, T-cell marker). All antibodies were purchased from PharMingen and flow cytometric analysis was done using a Coulter EPICS flow cytometer. Controls for non-specific binding and single color controls were included.
A general note: Flow cytometry measures light scatter and fluorescence of single cells or particles in a stream.

Where [3] appears, read: Table 2, substance in lower chamber, upper chamber OPN.
[4] abbreviates: Table 2, substance in lower chamber, upper chamber PBS.
Setting [5] is: Table 2, substance in lower chamber, upper chamber SP64.
Where [6] appears, read: Table 2, substance in lower chamber, upper chamber peptide 51.
[7] abbreviates: Table 2, substance in upper chamber, lower chamber PBS.
Setting [8] is: Table 3, substance in lower chamber, upper chamber Ab64.
The mark [9] stands for this setting: Table 3, substance in lower chamber, upper chamber OPN.
[10] abbreviates: Table 3, substance in lower chamber, upper chamber PBS.
[11] abbreviates: Table 3, substance in lower chamber, upper chamber peptide 51.
[12] abbreviates: Table 3, substance in upper chamber, lower chamber PBS.
Setting [13] is: Table 4, substance in lower chamber, upper chamber OPN.
[14] abbreviates: Table 4, substance in lower chamber, upper chamber OPN(ct).
Where [15] appears, read: Table 4, substance in lower chamber, upper chamber OPN(nT).
Where [16] appears, read: Table 4, substance in lower chamber, upper chamber PBS, averages from at least three experiments.
Setting [17] is: Table 4, substance in upper chamber, lower chamber PBS.
[18] abbreviates: 6 hours after intraperitoneal injection.

For the molecule “KFHSHKDKLVLDPKSK (OTHER INFORMATION: Osteopontin Derived Peptide) [SP64]”, the “Responding cells on the lower surface of the filter” value turned out to be 74 in test [1] (setting [3]); 117 in test [1] (setting [4]); 66 in test [1] (setting [5]); 40 in test [1] (setting [6]); 4 in test [1] (setting [7]).

On to “LVLAPK (OTHER INFORMATION: Osteopontin Derived Peptide) [mutant of peptide 51 with aspartic acid replaced]”, for which the “Chemotactic activity (in words)” value in test [1] was “failed to induce chemotaxis”.

“LVLDPK (OTHER INFORMATION: Osteopontin derived peptide) [peptide 51, chemotactic tryptic peptide of osteopontin, also synthesized]”: the “Competition with OPN for the migration of cells” value in test [1] was “competes with OPN”. Besides, the “Responding cells on the lower surface of the filter” value came out at 68 in test [1] (Table 1, substance in lower chamber, upper chamber PBS); 83 in test [1] (Table 1, substance in lower chamber, upper chamber peptide 49); 56 in test [1] (Table 1, substance in lower chamber, upper chamber peptide 50); 32 in test [1] (Table 1, substance in lower chamber, upper chamber peptide 51); 78 in test [1] (Table 1, substance in lower chamber, upper chamber peptide 52); 62 in test [1] (Table 1, substance in lower chamber, upper chamber peptide 53). Also, the “Responding cells on the lower surface of the filter” value in test [1] (Table 1, substance in upper chamber, lower chamber PBS) was found to be 13; in test [1] (setting [3]), 88; in test [1] (setting [4]), 128; in test [1] (setting [5]) it was 47; in test [1] (setting [6]) it was 51; in test [1] (setting [7]), 9. The “Responding cells on the lower surface of the filter” value is on record as 62 in test [1] (setting [8]); 187 in test [1] (setting [9]); 243 in test [1] (setting [10]); 109 in test [1] (setting [11]); 8 in test [1] (setting [12]). For the same molecule, the “Chemotactic activity (in words)” value in test [1] was “showed chemotactic properties”.

With “VLDPK (OTHER INFORMATION: Osteopontin Derived Peptide) [peptide E]”, the “Chemotactic activity (in words)” value in test [1] was “retains some chemotactic activity”; in test [1] (listed as VLDPK), “retains some chemotactic properties”.

For osteopontin [OPN], the “Responding cells on the lower surface of the filter” value is listed as 43 in test [1] (setting [3]); 118 in test [1] (setting [4]); 45 in test [1] (setting [5]); 32 in test [1] (setting [6]); 21 in test [1] (setting [7]); 51 in test [1] (setting [8]). For the same molecule, the “Responding cells on the lower surface of the filter” value in test [1] (setting [9]) was determined as 94; in test [1] (setting [10]), 217; in test [1] (setting [11]), 65; in test [1] (setting [12]), 14; in test [1] (setting [13]), 43; in test [1] (setting [14]), 58. Also, the entries for the “Responding cells on the lower surface of the filter” value in test [1] (setting [15]), in test [1] (setting [16]) and in test [1] (setting [17]) were 115, 98 and 21, respectively. Moreover, the “Chemotactic activity (in words)” value in test [1] is given as “chemotax toward”. Further, the “Dose of peak response of cellular infiltrate” value in test [2] (setting [18]) is “around 13 μg”. For the same molecule, in test [2] (setting [18]), the “Number of CD3+ and B220+ cells in the infiltrate” value is reported as “only marginally elevated”. In test [2] (setting [18]), the “Number of Mac-1+ cells in the infiltrate over basal levels” value is given as “increased fivefold”. Also, in test [2] (6 hours after intraperitoneal injection, dose titration), the “Cellular infiltrate in the peritoneum (in words)” value is on record as “dose dependent increase”. Further, the “Dose of peak CD44+ Mac1+ cell response” value in test [2] (intraperitoneal injection) was “around 7 μg”. The “Peritoneal influx of cells” value in test [2] (intraperitoneal injection, mice) came out at 1.16 million cells.

B1: OPN(ct): the C-terminal half of OPN after thrombin cleavage (protein)
chain: SKSRSFQVSDEQYPDATDEDLTSHMKSGESKESLDVIPVAQLLSMPSDQDNNGKGSHESSQLDEPSLETHRLEHSKESQESADQSDVIDSQASSKASLEHQSHKFHSHKDKLVLDPKSKEDDRYLKFRISHELESSSSEVN
For B1, the “Responding cells on the lower surface of the filter” value was found to be 74 in test [1] (setting [13]); 31 in test [1] (setting [14]); 76 in test [1] (setting [15]); 117 in test [1] (setting [16]); 156 in test [1] (setting [17]). For the same molecule, the “Chemotactic activity (in words)” value in test [1] is recorded as “chemotax toward”.
